Experimental data as given in ChEMBL document CHEMBL1909294, “Translating clinical findings into knowledge in drug safety evaluation--drug induced liver injury prediction system (DILIps)” (PLoS Comput Biol, 2011).

Assays:
[1] = system: Hepatotoxicity;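 as to HepSE bilirubinemia: bilirubinemia hepatic side effect score drawn from the DILIps training data, a prediction system for drug-induced liver injury; call rule not given here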;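 as to HepSE cholecystitis: Cholecystitis-related hepatic side effect score drawn from the DILIps (drug-induced liver injury prediction) training data set; call rule not given here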;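 as to HepSE cholelithiasis: hepatic side effect score for cholelithiasis, drawn from the DILIps training data for predicting drug-induced liver injury; call rule not given here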;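 as to HepSE cirrhosis: cirrhosis hepatic side effect score taken from the DILIps (drug-induced liver injury prediction) training set; call rule not given here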;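 as to HepSE elevated liver function tests: hepatic side effect score for raised liver function tests, as recorded in the DILIps training set used for predicting drug-induced liver injury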; as to HepSE hepatic failure: call rule not given here;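 as to HepSE hepatomegaly: hepatic side effect score for hepatomegaly, taken from the training set of the DILIps drug-induced liver injury prediction system; call rule not given here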
[2] = system: Hepatotoxicity; remark: listed apart in the source;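 as to HepSE bilirubinemia: bilirubinemia hepatic side effect score drawn from the DILIps training data, a prediction system for drug-induced liver injury; call rule not given here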;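 as to HepSE cholecystitis: Cholecystitis-related hepatic side effect score drawn from the DILIps (drug-induced liver injury prediction) training data set; call rule not given here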;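 as to HepSE cholelithiasis: hepatic side effect score for cholelithiasis, drawn from the DILIps training data for predicting drug-induced liver injury; call rule not given here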;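 as to HepSE cirrhosis: cirrhosis hepatic side effect score taken from the DILIps (drug-induced liver injury prediction) training set; call rule not given here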;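 as to HepSE elevated liver function tests: hepatic side effect score for raised liver function tests, as recorded in the DILIps training set used for predicting drug-induced liver injury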; as to HepSE hepatic failure: call rule not given here
[3] = system: Hepatotoxicity; remark: listed apart in the source;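 as to HepSE bilirubinemia: bilirubinemia hepatic side effect score drawn from the DILIps training data, a prediction system for drug-induced liver injury; call rule not given here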;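 as to HepSE cholecystitis: Cholecystitis-related hepatic side effect score drawn from the DILIps (drug-induced liver injury prediction) training data set; call rule not given here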;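 as to HepSE cholelithiasis: hepatic side effect score for cholelithiasis, drawn from the DILIps training data for predicting drug-induced liver injury; call rule not given here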;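 as to HepSE cirrhosis: cirrhosis hepatic side effect score taken from the DILIps (drug-induced liver injury prediction) training set; call rule not given here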;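 as to HepSE elevated liver function tests: hepatic side effect score for raised liver function tests, as recorded in the DILIps training set used for predicting drug-induced liver injury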; as to HepSE hepatic failure: call rule not given here
[4] = system: Hepatotoxicity; remark: listed apart in the source;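 as to HepSE bilirubinemia: bilirubinemia hepatic side effect score drawn from the DILIps training data, a prediction system for drug-induced liver injury; call rule not given here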;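 as to HepSE cholecystitis: Cholecystitis-related hepatic side effect score drawn from the DILIps (drug-induced liver injury prediction) training data set; call rule not given here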;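 as to HepSE cholelithiasis: hepatic side effect score for cholelithiasis, drawn from the DILIps training data for predicting drug-induced liver injury; call rule not given here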;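 as to HepSE cirrhosis: cirrhosis hepatic side effect score taken from the DILIps (drug-induced liver injury prediction) training set; call rule not given here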;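 as to HepSE elevated liver function tests: hepatic side effect score for raised liver function tests, as recorded in the DILIps training set used for predicting drug-induced liver injury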; as to HepSE hepatic failure: call rule not given here
[5] = system: Hepatotoxicity; remark: listed apart in the source; as to HepSE hepatic failure: call rule not given here
[6] = system: Hepatotoxicity; remark: listed apart in the source; as to HepSE hepatic failure: call rule not given here
[7] = system: Hepatotoxicity; remark: listed apart in the source
[8] = system: Hepatotoxicity; remark: listed apart in the source
[9] = system: Hepatotoxicity; remark: listed apart in the source
[10] = system: Hepatotoxicity; remark: listed apart in the source
[11] = system: Hepatotoxicity; remark: listed apart in the source
[12] = system: Hepatotoxicity; remark: listed apart in the source
[13] = system: Hepatotoxicity; remark: listed apart in the source
[14] = system: Hepatotoxicity; remark: listed apart in the source

SMILES: O=C(O)c1cc(-c2ccc(F)cc2F)ccc1O [DIFLUNISAL]
- HepSE_bilirubinemia ([1]; Liver): 0
- HepSE_cholecystitis ([2]; Liver): 0
- HepSE_cholelithiasis ([3]; Liver): 0
- HepSE_cirrhosis ([4]; Liver): 0
- HepSE_elevated liver function tests ([5]; Liver): 0
- HepSE_hepatic failure ([6]; Liver): 0
- HepSE_hepatic necrosis ([7]; Liver): 0
- HepSE_hepatitis ([8]; Liver): 1
- HepSE_hepatomegaly ([9]; Liver): 0
- HepSE_jaundice ([10]; Liver): 1
- HepSE_liver disease ([11]; Liver): 0
- HepSE_liver fatty ([12]; Liver): 0
- HepSE_liver function tests abnormal ([13]; Liver): 0
- HepSE_Combined Scores ([14]; Liver): 2

SMILES: C[C@H]1O[C@@H](O[C@H]2[C@@H](O)C[C@H](O[C@H]3[C@@H](O)C[C@H](O[C@H]4CC[C@@]5(C)[C@H](CC[C@@H]6[C@@H]5C[C@@H](O)[C@]5(C)[C@@H](C7=CC(=O)OC7)CC[C@]65O)C4)O[C@@H]3C)O[C@@H]2C)C[C@H](O)[C@@H]1O [DIGOXIN]
- HepSE_bilirubinemia [1]: 0
- HepSE_cholecystitis [2]: 0
- HepSE_cholelithiasis [3]: 0
- HepSE_cirrhosis [4]: 0
- HepSE_elevated liver function tests [5]: 0
- HepSE_hepatic failure [6]: 0
- HepSE_hepatic necrosis [7]: 0
- HepSE_hepatitis [8]: 0
- HepSE_hepatomegaly [9]: 0
- HepSE_jaundice [10]: 0
- HepSE_liver disease [11]: 0
- HepSE_liver fatty [12]: 0
- HepSE_liver function tests abnormal [13]: 0
- HepSE_Combined Scores [14]: 0

SMILES: CN1C[C@H](C(=O)N[C@]2(C)O[C@@]3(O)[C@@H]4CCCN4C(=O)[C@H](Cc4ccccc4)N3C2=O)C[C@@H]2c3cccc4[nH]cc(c34)C[C@H]21 [DIHYDROERGOTAMINE]
- HepSE_bilirubinemia [1]: 0
- HepSE_cholecystitis [2]: 0
- HepSE_cholelithiasis [3]: 0
- HepSE_cirrhosis [4]: 0
- HepSE_elevated liver function tests [5]: 0
- HepSE_hepatic failure [6]: 0
- HepSE_hepatic necrosis [7]: 0
- HepSE_hepatitis [8]: 0
- HepSE_hepatomegaly [9]: 0
- HepSE_jaundice [10]: 0
- HepSE_liver disease [11]: 0
- HepSE_liver fatty [12]: 0
- HepSE_liver function tests abnormal [13]: 0
- HepSE_Combined Scores [14]: 0

SMILES: COc1ccc([C@@H]2Sc3ccccc3N(CCN(C)C)C(=O)[C@@H]2OC(C)=O)cc1 [DILTIAZEM]
- HepSE_bilirubinemia [1]: 0
- HepSE_cholecystitis [2]: 0
- HepSE_cholelithiasis [3]: 0
- HepSE_cirrhosis [4]: 0
- HepSE_elevated liver function tests [5]: 0
- HepSE_hepatic failure [6]: 0
- HepSE_hepatic necrosis [7]: 0
- HepSE_hepatitis [8]: 0
- HepSE_hepatomegaly [9]: 0
- HepSE_jaundice [10]: 0
- HepSE_liver disease [11]: 0
- HepSE_liver fatty [12]: 0
- HepSE_liver function tests abnormal [13]: 0
- HepSE_Combined Scores [14]: 0

SMILES: OCC(S)CS (stereo not drawn) [DIMERCAPROL]
- HepSE_bilirubinemia ([1]; Liver): 0
- HepSE_cholecystitis ([2]; Liver): 0
- HepSE_cholelithiasis ([3]; Liver): 0
- HepSE_cirrhosis ([4]; Liver): 0
- HepSE_elevated liver function tests ([5]; Liver): 0
- HepSE_hepatic failure ([6]; Liver): 0
- HepSE_hepatic necrosis ([7]; Liver): 0
- HepSE_hepatitis ([8]; Liver): 0
- HepSE_hepatomegaly ([9]; Liver): 0
- HepSE_jaundice ([10]; Liver): 0
- HepSE_liver disease ([11]; Liver): 0
- HepSE_liver fatty ([12]; Liver): 0
- HepSE_liver function tests abnormal ([13]; Liver): 0
- HepSE_Combined Scores ([14]; Liver): 0

SMILES: CCCCC[C@H](O)/C=C/[C@H]1[C@H](O)CC(=O)[C@@H]1C/C=C\CCCC(=O)O [DINOPROSTONE]
- HepSE_bilirubinemia [1]: 0
- HepSE_cholecystitis [2]: 0
- HepSE_cholelithiasis [3]: 0
- HepSE_cirrhosis [4]: 0
- HepSE_elevated liver function tests [5]: 0
- HepSE_hepatic failure [6]: 0
- HepSE_hepatic necrosis [7]: 0
- HepSE_hepatitis [8]: 0
- HepSE_hepatomegaly [9]: 0
- HepSE_jaundice [10]: 0
- HepSE_liver disease [11]: 0
- HepSE_liver fatty [12]: 0
- HepSE_liver function tests abnormal [13]: 0
- HepSE_Combined Scores [14]: 0

SMILES: CNCC(O)c1ccc(OC(=O)C(C)(C)C)c(OC(=O)C(C)(C)C)c1 (stereo not drawn) [DIPIVEFRIN]
- HepSE_bilirubinemia [1]: 0
- HepSE_cholecystitis [2]: 0
- HepSE_cholelithiasis [3]: 0
- HepSE_cirrhosis [4]: 0
- HepSE_elevated liver function tests [5]: 0
- HepSE_hepatic failure [6]: 0
- HepSE_hepatic necrosis [7]: 0
- HepSE_hepatitis [8]: 0
- HepSE_hepatomegaly [9]: 0
- HepSE_jaundice [10]: 0
- HepSE_liver disease [11]: 0
- HepSE_liver fatty [12]: 0
- HepSE_liver function tests abnormal [13]: 0
- HepSE_Combined Scores [14]: 0

SMILES: CC(C)N(CCC(C(N)=O)(c1ccccc1)c1ccccn1)C(C)C (stereo not drawn) [DISOPYRAMIDE]
- HepSE_bilirubinemia [1]: 0
- HepSE_cholecystitis [2]: 0
- HepSE_cholelithiasis [3]: 0
- HepSE_cirrhosis [4]: 0
- HepSE_elevated liver function tests [5]: 0
- HepSE_hepatic failure [6]: 0
- HepSE_hepatic necrosis [7]: 0
- HepSE_hepatitis [8]: 0
- HepSE_hepatomegaly [9]: 0
- HepSE_jaundice [10]: 1
- HepSE_liver disease [11]: 0
- HepSE_liver fatty [12]: 0
- HepSE_liver function tests abnormal [13]: 0
- HepSE_Combined Scores [14]: 1

SMILES: CC(CCc1ccc(O)cc1)NCCc1ccc(O)c(O)c1 (stereo not drawn) [DOBUTAMINE]
- HepSE_bilirubinemia [1]: 0
- HepSE_cholecystitis [2]: 0
- HepSE_cholelithiasis [3]: 0
- HepSE_cirrhosis [4]: 0
- HepSE_elevated liver function tests [5]: 0
- HepSE_hepatic failure [6]: 0
- HepSE_hepatic necrosis [7]: 0
- HepSE_hepatitis [8]: 0
- HepSE_hepatomegaly [9]: 0
- HepSE_jaundice [10]: 0
- HepSE_liver disease [11]: 0
- HepSE_liver fatty [12]: 0
- HepSE_liver function tests abnormal [13]: 0
- HepSE_Combined Scores [14]: 0

SMILES: CC(=O)O[C@@]12CO[C@@H]1C[C@H](O)[C@@]1(C)C(=O)[C@H](O)C3=C(C)[C@@H](OC(=O)[C@H](O)[C@@H](NC(=O)OC(C)(C)C)c4ccccc4)C[C@@](O)([C@@H](OC(=O)c4ccccc4)[C@H]21)C3(C)C.O.O.O [DOCETAXEL]
- HepSE_bilirubinemia [1]: 1
- HepSE_cholecystitis [2]: 0
- HepSE_cholelithiasis [3]: 0
- HepSE_cirrhosis [4]: 0
- HepSE_elevated liver function tests [5]: 1
- HepSE_hepatic failure [6]: 1
- HepSE_hepatic necrosis [7]: 0
- HepSE_hepatitis [8]: 1
- HepSE_hepatomegaly [9]: 0
- HepSE_jaundice [10]: 1
- HepSE_liver disease [11]: 0
- HepSE_liver fatty [12]: 0
- HepSE_liver function tests abnormal [13]: 1
- HepSE_Combined Scores [14]: 6

SMILES: CCCCCCCCCCCCCCCCCCCCCCO [DOCOSANOL]
- HepSE_bilirubinemia [1]: 0
- HepSE_cholecystitis [2]: 0
- HepSE_cholelithiasis [3]: 0
- HepSE_cirrhosis [4]: 0
- HepSE_elevated liver function tests [5]: 0
- HepSE_hepatic failure [6]: 0
- HepSE_hepatic necrosis [7]: 0
- HepSE_hepatitis [8]: 0
- HepSE_hepatomegaly [9]: 0
- HepSE_jaundice [10]: 0
- HepSE_liver disease [11]: 0
- HepSE_liver fatty [12]: 0
- HepSE_liver function tests abnormal [13]: 0
- HepSE_Combined Scores [14]: 0

SMILES: CN(CCOc1ccc(NS(C)(=O)=O)cc1)CCc1ccc(NS(C)(=O)=O)cc1 [DOFETILIDE]
- HepSE_bilirubinemia [1]: 0
- HepSE_cholecystitis [2]: 0
- HepSE_cholelithiasis [3]: 0
- HepSE_cirrhosis [4]: 0
- HepSE_elevated liver function tests [5]: 0
- HepSE_hepatic failure [6]: 0
- HepSE_hepatic necrosis [7]: 0
- HepSE_hepatitis [8]: 0
- HepSE_hepatomegaly [9]: 0
- HepSE_jaundice [10]: 0
- HepSE_liver disease [11]: 0
- HepSE_liver fatty [12]: 0
- HepSE_liver function tests abnormal [13]: 0
- HepSE_Combined Scores [14]: 0

SMILES: O=C(O[C@@H]1C[C@@H]2C[C@H]3C[C@H](C1)N2CC3=O)c1c[nH]c2ccccc12 [DOLASETRON]
- HepSE_bilirubinemia [1]: 1
- HepSE_cholecystitis [2]: 0
- HepSE_cholelithiasis [3]: 0
- HepSE_cirrhosis [4]: 0
- HepSE_elevated liver function tests [5]: 0
- HepSE_hepatic failure [6]: 0
- HepSE_hepatic necrosis [7]: 0
- HepSE_hepatitis [8]: 0
- HepSE_hepatomegaly [9]: 0
- HepSE_jaundice [10]: 0
- HepSE_liver disease [11]: 1
- HepSE_liver fatty [12]: 0
- HepSE_liver function tests abnormal [13]: 0
- HepSE_Combined Scores [14]: 2

SMILES: O=c1[nH]c2ccccc2n1CCCN1CCC(n2c(=O)[nH]c3cc(Cl)ccc32)CC1 [DOMPERIDONE]
- HepSE_bilirubinemia [1]: 0
- HepSE_cholecystitis [2]: 0
- HepSE_cholelithiasis [3]: 0
- HepSE_cirrhosis [4]: 0
- HepSE_elevated liver function tests [5]: 0
- HepSE_hepatic failure [6]: 0
- HepSE_hepatic necrosis [7]: 0
- HepSE_hepatitis [8]: 0
- HepSE_hepatomegaly [9]: 0
- HepSE_jaundice [10]: 0
- HepSE_liver disease [11]: 0
- HepSE_liver fatty [12]: 0
- HepSE_liver function tests abnormal [13]: 0
- HepSE_Combined Scores [14]: 0

SMILES: COc1cc2c(cc1OC)C(=O)C(CC1CCN(Cc3ccccc3)CC1)C2 (stereo not drawn) [DONEPEZIL]
- HepSE_bilirubinemia [1]: 1
- HepSE_cholecystitis [2]: 1
- HepSE_cholelithiasis [3]: 1
- HepSE_cirrhosis [4]: 0
- HepSE_elevated liver function tests [5]: 0
- HepSE_hepatic failure [6]: 0
- HepSE_hepatic necrosis [7]: 0
- HepSE_hepatitis [8]: 1
- HepSE_hepatomegaly [9]: 0
- HepSE_jaundice [10]: 1
- HepSE_liver disease [11]: 0
- HepSE_liver fatty [12]: 0
- HepSE_liver function tests abnormal [13]: 1
- HepSE_Combined Scores [14]: 6

SMILES: NCCc1ccc(O)c(O)c1 [DOPAMINE]
- HepSE_bilirubinemia ([1]; Liver): 0
- HepSE_cholecystitis ([2]; Liver): 0
- HepSE_cholelithiasis ([3]; Liver): 0
- HepSE_cirrhosis ([4]; Liver): 0
- HepSE_elevated liver function tests ([5]; Liver): 0
- HepSE_hepatic failure ([6]; Liver): 0
- HepSE_hepatic necrosis ([7]; Liver): 0
- HepSE_hepatitis ([8]; Liver): 0
- HepSE_hepatomegaly ([9]; Liver): 0
- HepSE_jaundice ([10]; Liver): 0
- HepSE_liver disease ([11]; Liver): 0
- HepSE_liver fatty ([12]; Liver): 0
- HepSE_liver function tests abnormal ([13]; Liver): 0
- HepSE_Combined Scores ([14]; Liver): 0

SMILES: CCN[C@H]1C[C@H](C)S(=O)(=O)c2sc(S(N)(=O)=O)cc21 [DORZOLAMIDE]
- HepSE_bilirubinemia [1]: 0
- HepSE_cholecystitis [2]: 0
- HepSE_cholelithiasis [3]: 0
- HepSE_cirrhosis [4]: 0
- HepSE_elevated liver function tests [5]: 0
- HepSE_hepatic failure [6]: 0
- HepSE_hepatic necrosis [7]: 0
- HepSE_hepatitis [8]: 0
- HepSE_hepatomegaly [9]: 1
- HepSE_jaundice [10]: 0
- HepSE_liver disease [11]: 0
- HepSE_liver fatty [12]: 0
- HepSE_liver function tests abnormal [13]: 0
- HepSE_Combined Scores [14]: 1
